Experiment [1] relates to thale cress. In words: Activities on plants: growth of thale cress on agar medium (Evaluation 1, 6). The class given is in vivo, thale cress (Col-0, wild-type strain). Particulars: for plant growth inhibition effect (activity on plant growth) / twisting of root epidermal cells / abnormality in direction of root growth: thale cress Col-0, agar medium, 7 days; for twisting of root epidermal cells / abnormality in direction of root growth: scanned images. On the procedure:
The test compound (compound (6a)) and DMSO for a control experiment, were added at this stage and blended. Fifty ml each of the medium was dispensed in sterile No. 2 square petri dishes (Eiken Chemical Co., Ltd.) to prepare agar medium. As a plant material, Col-0, which is a wild-type strain of […] used. Seeds, after their surfaces were sterilized, were planted on the agar medium, and vernalized at 4° C. for 16 hours. Growth of the plant was carried out in a growth chamber (SANYO MLR-351) under the conditions of an illuminance of 3 at 23° C. with constant light. The agar medium was allowed to stand upright in the chamber to grow the plant for 7 days. Lids of the petri dishes used for the test were opened, the test results were recorded with a scanner, and with the scanned images, […]

A further experiment has as its system HeLa cell. In words: Cell proliferation inhibiting activity on human cultured cancer cells (Evaluation 2). Format: cell-based. Particulars: final concentration 1 μM, 32 hours, control. On the procedure: Every 8 hours after the culture was started, living cell counts were measured with a cell counting kit (DOJINDO LABORATORIES). In addition, staurosporine was used as a control of the compound which inhibits the cell proliferation.

For another experiment, the system named is Japanese millet. Description: Seed treatment, plant growth inhibition index (Evaluation 11). Format: in vivo. Also noted: key: 0: No effect; 1: Growth of the root part was inhibited 50% or less compared with non-treated area.; 2: Growth of the root part was inhibited 50% or more compared with non-treated area.; 3: Growth of the root part was substantially inhibited.; 4: Germination was inhibited. The following applies: 200 μM, 6 days (9a, 9b: 7 days).

Another experiment relates to morning glory. Described as above. Format: in vivo. Also noted: key: 0: No effect; 1: Growth of the root part was inhibited 50% or less compared with non-treated area.; 2: Growth of the root part was inhibited 50% or more compared with non-treated area.; 3: Growth of the root part was substantially inhibited.; 4: Germination was inhibited. The following applies: 200 μM, 6 days (9a, 9b: 7 days).

In another experiment the test system is Ragweed. The description is as above. Format: in vivo. Set-up: key: 0: No effect; 1: Growth of the root part was inhibited 50% or less compared with non-treated area.; 2: Growth of the root part was inhibited 50% or more compared with non-treated area.; 3: Growth of the root part was substantially inhibited.; 4: Germination was inhibited. The following applies: 200 μM, 6 days (9a, 9b: 7 days).

For experiment [2], the system named is velvet leaf. Described as above. Format: in vivo. Also noted: key: 0: No effect; 1: Growth of the root part was inhibited 50% or less compared with non-treated area.; 2: Growth of the root part was inhibited 50% or more compared with non-treated area.; 3: Growth of the root part was substantially inhibited.; 4: Germination was inhibited. The following applies: 200 μM, 6 days (9a, 9b: 7 days).

Another experiment has as its system purple amaranth. In words: Spray treatment to stems and leaves, killing weed index (Evaluation 10). The class given is in vivo. The following applies: 2000 g active ingredient per hectare, two weeks later. A digest of the protocol: (§1)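 Post-emergence foliar spray on plants 2–9 cm tall at 2000 g active ingredient/ha, in 1000 L/ha or 250 L/ha (small-amount test) spray volume. Above-ground weight versus untreated measured after two weeks; killing rate converted to 0–10 index in 10% steps, 10 meaning 100%.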

Another experiment deals with Japanese bristlegrass. Described as above. The class given is in vivo. The following applies: 2000 g active ingredient per hectare, two weeks later. A digest of the protocol:
as §1

Experiment [3] deals with velvet leaf. Described as above. The class given is in vivo. Particulars: 2000 g active ingredient per hectare, two weeks later. The method in brief: as §1
Another experiment relates to southern crabgrass. The experiment is described as above. Particulars: 2000 g active ingredient per hectare, two weeks later. The class given is in vivo. A digest of the protocol:
as §1

Experiment [4] has as its system thale cress. Description: Plant growth inhibition index, thale cress on agar medium in test tube (Evaluation 8, 9). The class given is in vivo, thale cress (Col-0, wild-type strain). Set-up: key: 0: No effect; 1: Growth of the root part was inhibited 50% or less compared with non-treated area.; 2: Growth of the root part was inhibited 50% or more compared with non-treated area.; 3: Growth of the root part was substantially inhibited.; 4: Germination was inhibited. Particulars: Concentration 200 μM, 8 days (Evaluation 9, Table 2).

The next experiment has as its system E. coli (DH5a strain). Description: E. coli growth inhibiting activity (Evaluation 5). The following applies: final concentration 50 μg/ml, control. The class given is cell-based. As to the method:
The compound (6a) or the compound (7) (final concentration 10 μM or 100 μM), 50% ethanol (final concentration 0.05% or 0.5%), or ampicillin (final concentration 50 μg/ml) was added to LB medium in which E. coli (DH5a strain) was added to carry out shaking culture at 37° C. One, 2, 4, and 6 hours after the culture was started, turbidity (OD600) of the culture medium was measured with a spectrophotometer to analyze the affect of the compound (6a) or the compound (7), 50% ethanol, ampicillin on the growth of E. coli cells.
In addition, ampicillin was used as a control of the compound which inhibits the growth.

Where [5] appears, read: thale cress Col-0, concentration of 1000 μM.
Where [6] appears, read: sprayed liquid amount 1000 L/ha.

For the molecule `CCCCOn1cccc1C(=O)O` [Compound 6f, 1-Butoxy-1H-pyrrole-2-carboxylic acid], the germination result in the experiment on thale cress [1] (thale cress Col-0, concentration of 500 μM) is listed as “substantially no germination was observed”; with thale cress [1] (setting [5]), “no germination was observed”.

`CN[C@@H]1C[C@H]2O[C@@](C)([C@@H]1OC)n1c3ccccc3c3c4c(c5c6ccccc6n2c5c31)C(=O)NC4` [staurosporine, reference compound]: the “effect on HeLa cells (living cell counts)” value with HeLa cell is “induced the apoptosis”.

For the molecule `O=C(O)c1cccn1OCc1ccccc1` [Compound 6g, 1-(Benzyloxy)-1H-pyrrole-2-carboxylic acid], the “plant growth inhibition effect (activity on plant growth)” value with thale cress [1] was “a plant growth inhibiting effect was observed even more than when each of the compounds (6d) to (6f)”.

Turning to `CCOn1cccc1C(=O)O` [Compound 6b, 1-Ethoxy-1H-pyrrole-2-carboxylic acid], the “twisting of root epidermal cells / abnormality in direction of root growth” value with thale cress [1] is “epidermal cells of the roots were twisted leftward and abnormality in a direction of the root growth was observed”.

For the molecule `CCCCCCCCCOn1cccc1C(=O)NCc1ccccc1` [Compound 9e], in the experiment on Japanese millet, the “plant growth inhibition index, Japanese millet” value was 3 (Growth of the stem and leave parts was inhibited 30% or more compared with non-treated area, or growth of the only root part was inhibited 60% or more compared with non-treated area.). Further, in the experiment on morning glory, the “plant growth inhibition index, Morning glory” value came out at 0. The “plant growth inhibition index, Ragweed” value with Ragweed is given as 0. Further, the “plant growth inhibition index, Velvet leaf” value in the experiment with velvet leaf [2] is on record as 0. In addition, the “killing weed index, Purple amaranth” value in the experiment on purple amaranth (sprayed liquid amount 250 L/ha) and with purple amaranth (setting [6]) was 0 (“0” when a killing weed rate is 9% to 0%) in each case. For the same molecule, the “killing weed index, Japanese bristlegrass” value in the experiment with Japanese bristlegrass (sprayed liquid amount 250 L/ha) and with Japanese bristlegrass (setting [6]) was 2 (“2” when a killing weed rate is 29% to 20%) throughout. The “killing weed index, Velvet leaf” value is reported as 2 (“2” when a killing weed rate is 29% to 20%) with velvet leaf [3] (sprayed liquid amount 250 L/ha) and 0 (“0” when a killing weed rate is 9% to 0%) in the experiment with velvet leaf [3] (setting [6]). The “killing weed index, Southern crabgrass” value in the experiment on southern crabgrass (sprayed liquid amount 250 L/ha) and in the experiment with southern crabgrass (setting [6]) was 2 (“2” when a killing weed rate is 29% to 20%) throughout. Moreover, in the experiment with thale cress [4], the Index is given as 2 (Growth of the root part was inhibited 50% or more compared with non-treated area.).

In the case of `CCCCCCCCCOn1cccc1C(=O)NC` [Compound 9d], in the experiment on Japanese millet, the “plant growth inhibition index, Japanese millet” value was 3 (Growth of the stem and leave parts was inhibited 30% or more compared with non-treated area, or growth of the only root part was inhibited 60% or more compared with non-treated area.). In addition, the “plant growth inhibition index, Morning glory” value in the experiment with morning glory stood at 0. Further, the “plant growth inhibition index, Ragweed” value in the experiment on Ragweed is 3 (Growth of the stem and leave parts was inhibited 30% or more compared with non-treated area, or growth of the only root part was inhibited 60% or more compared with non-treated area.). The “plant growth inhibition index, Velvet leaf” value in the experiment on velvet leaf [2] is given as 0. The “killing weed index, Purple amaranth” value in the experiment with purple amaranth (sprayed liquid amount 250 L/ha) and in the experiment on purple amaranth (setting [6]) was 0 (“0” when a killing weed rate is 9% to 0%) throughout. The “killing weed index, Japanese bristlegrass” value with Japanese bristlegrass (sprayed liquid amount 250 L/ha) is 2 (“2” when a killing weed rate is 29% to 20%); in the experiment on Japanese bristlegrass (setting [6]), 1 (“1” when a killing weed rate is 19% to 10%). The “killing weed index, Velvet leaf” value was 3 (“3” when a killing weed rate is 39% to 30%) in the experiment on velvet leaf [3] (sprayed liquid amount 250 L/ha) and 0 (“0” when a killing weed rate is 9% to 0%) in the experiment on velvet leaf [3] (setting [6]). The “killing weed index, Southern crabgrass” value in the experiment with southern crabgrass (sprayed liquid amount 250 L/ha) was 3 (“3” when a killing weed rate is 39% to 30%); in the experiment with southern crabgrass (setting [6]), 2 (“2” when a killing weed rate is 29% to 20%). In addition, in the experiment with thale cress [4], the Index was determined as 3.

In the case of `CC1(C)S[C@@H]2[C@H](NC(=O)[C@H](N)c3ccccc3)C(=O)N2[C@H]1C(=O)O` [ampicillin, reference compound], in the experiment on E. coli (DH5a strain), the “E. coli growth (OD600)” value is recorded as “growth inhibition was observed”.

On to `CCCOn1cccc1C(=O)O` [Compound 6d, 1-Propoxy-1H-pyrrole-2-carboxylic acid], for which, in the experiment on thale cress [1] (setting [5]), the germination entry was “No germinations were observed”.

In the case of `O=C(O)c1cccn1O` [Compound 6c, 1-Hydroxy-1H-pyrrole-2-carboxylic acid], the “plant growth inhibition effect (activity on plant growth)” value in the experiment on thale cress [1] was “no activity was observed”.

With `CC(C)On1cccc1C(=O)O` [Compound 6e, 1-Isopropoxy-1H-pyrrole-2-carboxylic acid], the germination entry in the experiment with thale cress [1] (setting [5]) is given as “No germinations were observed”.

For `CCCCCOn1cc(-c2ccccc2)cc1C(=O)O` [Compound 9a, 1-Pentyloxy-4-phenyl-1H-pyrrole-2-carboxylic acid], the “plant growth inhibition index, Japanese millet” value in the experiment with Japanese millet was 3 (Growth of the stem and leave parts was inhibited 30% or more compared with non-treated area, or growth of the only root part was inhibited 60% or more compared with non-treated area.). In addition, in the experiment on morning glory, the “plant growth inhibition index, Morning glory” value is given as 0. Besides, in the experiment with Ragweed, the “plant growth inhibition index, Ragweed” value amounted to 0. In addition, the “plant growth inhibition index, Velvet leaf” value in the experiment on velvet leaf [2] was found to be 0. In the experiment on purple amaranth (sprayed liquid amount 250 L/ha), the “killing weed index, Purple amaranth” value is on record as 8 (“8” when a killing weed rate is 89% to 80%). In addition, the “killing weed index, Japanese bristlegrass” value in the experiment with Japanese bristlegrass (sprayed liquid amount 250 L/ha) was 3 (“3” when a killing weed rate is 39% to 30%). For the same molecule, in the experiment on velvet leaf [3] (sprayed liquid amount 250 L/ha), the “killing weed index, Velvet leaf” value is reported as 3 (“3” when a killing weed rate is 39% to 30%). Besides, the “killing weed index, Southern crabgrass” value in the experiment with southern crabgrass (sprayed liquid amount 250 L/ha) is 2 (“2” when a killing weed rate is 29% to 20%). The same molecule showed an Index with thale cress [4] of 4.

Turning to `C#CC(C)(C)NC(=O)c1cc(Cl)cc(Cl)c1` [Propyzamide, reference compound], the “twisting of root epidermal cells / abnormality in direction of root growth” value in the experiment with thale cress [1] is reported as “abnormality in a direction of the root growth was also observed”.

For the origin of these results see patent publication US11685716B2, “Plant growth inhibiting agent, and plant growth inhibiting method using same” (NATIONAL UNIVERSITY CORPORATION KUMAMOTO UNIVERSITY, priority 2017, dated 2023).
